Measurements reported in article PMC12115217, “3,3′-((3-Hydroxyphenyl)azanediyl)dipropionic Acid Derivatives as a Promising Scaffold Against Drug-Resistant Pathogens and Chemotherapy-Resistant Cancer” (Pathogens, 2025).
pIC50: −log10 of the molar value. ≈ marks a conversion by molar mass, not a printed value. Entries after “also recorded” stand apart in the source; their conditions may differ. Where a name gives a salt, the structure may show the parent alone.

How the values were obtained:
P. aeruginosa AR-1114 [1] = assay: Broth microdilution MIC, P. aeruginosa AR-1114; assay type: cell-based; conditions: Pseudomonas aeruginosa, AR1114; IMP-15; CAMHB, 18 ± 2 h; read-out: minimal inhibitory concentration (MIC) P. aeruginosa AR-1114
K. pneumoniae AR-0003 [2] = assay: Broth microdilution MIC, K. pneumoniae AR-0003; assay type: cell-based, Klebsiella pneumoniae; conditions: KPC-3; CAMHB
From the text: (§1) The multidrug-resistant S. aureus strain TCH 1516 [USA 300-HOU-MR] was obtained from the American Type Culture Collection (ATCC, Manassas, VA, USA) (Table 1). E. faecalis AR-0671, multidrug-resistant E. coli AR-0001, K. pneumoniae AR-0003, P. aeruginosa AR-1114, and A. baumannii AR-0273 strains were acquired from the Centers for Disease Control and Prevention (CDC) AR isolate bank (Table 1). Prior to the initiation of this study, all microbial strains were stored in commercial cryopreservation systems at a temperature of −80 °C. The strains were cultivated on Columbia sheep blood agar (Becton Dickinson, Franklin Lakes, NJ, USA) or potato dextrose agar (PDA) for Candida (Becton Dickinson, Franklin Lakes, NJ, USA).
(§2) The antimicrobial activity of 3-((3-hydroxyphenyl)amino)propanoic acid derivatives was assessed by using the broth microdilution method, following the guidelines outlined by the Clinical Laboratory Standards Institute (CLSI), with modifications. In brief, the compounds were dissolved in dimethyl sulfoxide (DMSO) to attain a final concentration of 25–30 mg/mL. Vancomycin hydrochloride (MedChem express, Cat. No. HY-17362), cefazolin (MedChem express, Cat. No. HY-B1892), and meropenem (MedChem express, Cat. No. HY-13678) were used as control antimicrobial drugs and were dissolved in DMSO as described before. Dilution series were prepared in deep 96-well microplates to achieve a two-fold concentration range of 0.25, 0.5, 1, 2, 4, 8, 16, 32, and 64 µg/mL, utilizing cation-adjusted Mueller–Hinton broth (CAMHB) as the growth medium. The microplates containing the dilution series were then inoculated with fresh cultures of each tested organism to reach a final concentration of 5 × 10^4 CFU (colony-forming units) of the test organism in media containing 1% DMSO and 1× drug concentration, with a volume of 200 µL per well. Wells that were inoculated with medium containing 1% DMSO served as positive controls. Subsequently, the microplates were incubated at 35 ± 1 °C for 18 ± 2 h. Following the incubation period, the plates were examined by using a manual microplate viewer (Sensititre Manual Viewbox, ThermoFisher Scientific, Waltham, MA, USA). […] All experiments were conducted in duplicate with three technical replicates for each condition.

E. coli AR-0001 [3] = assay: Broth microdilution MIC, E. coli AR-0001; assay type: cell-based; conditions: Escherichia coli, AR0001; multidrug-resistant, KPC-3; CAMHB, 18 ± 2 h; read-out: minimal inhibitory concentration (MIC) E. coli AR-0001
E. coli AR-0001 [4] = assay: Broth microdilution MIC, E. coli AR-0001; assay type: cell-based, Escherichia coli; conditions: multidrug-resistant, KPC-3; CAMHB
From the text: as §1, §2

S. aureus TCH 1516 [5] = assay: Broth microdilution MIC, S. aureus TCH 1516; assay type: cell-based; conditions: Staphylococcus aureus, MRSA / USA300, mecA MRSA isolate, USA300 lineage; CAMHB, 18 ±; read-out: minimal inhibitory concentration (MIC) S. aureus TCH 1516
FaDu cells [6] = assay: MTT cell viability at fixed 100 µM, FaDu cells; assay type: cell-based; conditions: 24 h, described in words (Figure 2)
Method: Test compounds 2–25 were dissolved in hybridoma-grade dimethyl sulfoxide (Millipore, Sigma, Burlington, MA, USA) to prepare stock solutions at concentrations of 10–25 mg/mL. […] For in vitro anticancer activity screening, the compounds were thawed at room temperature, protected from light, and the aliquots were diluted in complete cell culture media to achieve a final concentration of 100 µM and used for the in vitro assays. The cytotoxicity assays were performed in triplicate.
(§3) FaDu cells were obtained from the American Type Culture Collection (Rockville, MD, USA). HEK293 cells were kindly provided by Dr. Iliev lab at the Jill Roberts Institute for Inflammatory Bowel Disease, Weill Cornel Medicine of Cornel University (New York, NY, USA). All cells were cultivated in Dulbecco’s Modified Eagle Medium/Nutrient Mixture F-12 (DMEM/F-12) (Gibco, Waltham, MA, USA), 10% fetal bovine serum (FBS) (Gibco, Waltham, MA, USA), 100 U/mL penicillin, and 100 μg/mL streptomycin (P/S) (Gibco, Waltham, MA, USA). Culturing conditions were maintained at 37 °C in a humidified atmosphere containing 5% CO2. The culture medium was refreshed every 2–3 days, and cells were passaged upon reaching 70–80% confluence.
(§4) The in vitro inhibitory effects of the compounds were assessed by using the MTT assay. Briefly, cells were plated in 96-well plates at a density of 1 × 10⁴ cells per well. After the cells were allowed to adhere overnight at 37 °C in 5% CO₂, they were treated with compounds at a concentration of 100 µM in triplicate. Following a 20 h incubation, the MTT reagent was added, and the cells were further incubated for 4 h. The resulting formazan was solubilized in anhydrous DMSO, and absorbance was measured at 570 nm by using a microplate reader. Cell viability was calculated by using the following formula: ([AE − AB]/[AC − AB]) × 100%, where AE, AC, and AB represent the absorbance values of experimental samples, untreated controls, and blank wells, respectively. Data analysis was performed by using GraphPad Prism or QuickCalcs.

P. aeruginosa AR-1114 [7] = assay: Broth microdilution MIC, P. aeruginosa AR-1114; assay type: cell-based, Pseudomonas aeruginosa; conditions: IMP-15; CAMHB
From the text: as §1, §2

K. pneumoniae AR-0003 [8] = assay: Broth microdilution MIC, K. pneumoniae AR-0003; assay type: cell-based; conditions: Klebsiella pneumoniae, AR0003; KPC-3; CAMHB, 18 ± 2 h; read-out: minimal inhibitory concentration (MIC) K. pneumoniae AR-0003
E. faecalis AR-0671 = assay: Broth microdilution MIC, E. faecalis AR-0671; assay type: cell-based, Enterococcus faecalis; conditions: CAMHB; for MIC: Enterococcus faecalis, AR0671, 18 ± 2 h, read-out: minimal inhibitory concentration (MIC) E. faecalis AR-0671
From the text: as §1, §2

S. aureus TCH 1516 [9] = assay: Broth microdilution MIC, S. aureus TCH 1516; assay type: cell-based, Staphylococcus aureus; conditions: mecA MRSA isolate, USA300 lineage; CAMHB, 18 ± 2 h
From the text: as §1, §2

A. baumannii AR-0273 = assay: Broth microdilution MIC, A. baumannii AR-0273; assay type: cell-based, Acinetobacter baumannii; conditions: OXA-23, CAMHB; for MIC: Acinetobacter baumannii, AR0273, 18 ± 2 h, read-out: minimal inhibitory concentration (MIC) A. baumannii AR-0273
From the text: as §1, §2

FaDu cells [10] = assay: Hydrogen peroxide production assay in FaDu cells; assay type: cell-based; conditions: 6 h, 0.25% DMSO, versus untreated control
Method: FaDu cells were seeded on the 6-well plates and incubated with the compounds as described before. After incubation, cells were cooled down on ice, washed two times with ice-cold PBS, and scraped in PBS. Cells were centrifuged at 10,000× g for 10 min at 4 °C, the supernatant was discarded, and 650 µL of ice-cold PBS was added. Cells were sonicated and centrifuged at 10,000× g for 10 min at 4 °C to remove cell debris. The resulting supernatant was carefully collected for subsequent hydrogen peroxide analysis by using a commercial kit (Pierce™ Quantitative Peroxide Assay Kit (Aqueous), Catalog number 23280) (Invitrogen, ThermoFisher Scientific, Waltham, MA, USA).

FaDu cells [11] = assay: MTT dose-response IC50, FaDu cells; assay type: cell-based; conditions: 0–100 µM, 24 h
Method: as §3, §4
(§5) The data were fitted to a nonlinear regression model (GraphPad Prism version 9.0, GraphPad Software, San Diego, CA, USA) to calculate the IC50 values for each compound tested in triplicate.

HEK293 cells = assay: MTT dose-response IC50, HEK293 cells; assay type: cell-based; conditions: non-cancerous HEK293 cells, 24 h
Method: as §3, §4, §5

FaDu cells [12] = assay: Superoxide dismutase (SOD) activity in FaDu cell lysate; assay type: cell-based; conditions: 6 h, 0.25% DMSO, versus untreated control (DMSO)
Method: FaDu cells were seeded onto 6-well tissue culture plates at a density of 5 × 10^5 cells per well and incubated overnight to allow for cell attachment. Following the incubation period, the cells were treated with the selected compounds dissolved in tissue culture medium containing 0.25% DMSO and incubated for an additional 6 h. After the treatment, the medium was aspirated, and the cells were washed twice with phosphate-buffered saline (PBS) to remove residual compounds. The cells were then trypsinized for 10 min to detach them from the culture surface. Following trypsinization, the cells were collected by centrifugation, washed with ice-cold PBS to remove any residual trypsin, and resuspended in 0.5 mL of ice-cold PBS. The cell suspension was then subjected to sonication on ice for disruption. After sonication, the samples were centrifuged at 10,000× g for 10 min at 4 °C to remove cell debris. The resulting supernatant was carefully collected for the subsequent assessment of SOD activity. The activity of superoxide dismutase (SOD) was determined by using a commercial colorimetric assay kit (Superoxide Dismutase (SOD) Colorimetric Activity Kit, Catalog Number EIASODC) (Invitrogen, ThermoFisher Scientific, Waltham, MA, USA) following the manufacturer’s instructions.

Structure (SMILES)	MIC (P. aeruginosa AR-1114 [1])	minimal inhibitory concentration (MIC) K. pneumoniae AR-0003 (K. pneumoniae AR-0003 [2])	MIC (E. coli AR-0001 [3])	minimal inhibitory concentration (MIC) E. coli AR-0001 (E. coli AR-0001 [4])	MIC (S. aureus TCH 1516 [5])	minimal inhibitory concentration (MIC) P. aeruginosa AR-1114 (P. aeruginosa AR-1114 [7])	MIC (K. pneumoniae AR-0003 [8])	minimal inhibitory concentration (MIC) E. faecalis AR-0671 (E. faecalis AR-0671)	MIC (E. faecalis AR-0671)	minimal inhibitory concentration (MIC) S. aureus TCH 1516 (S. aureus TCH 1516 [9])	MIC (A. baumannii AR-0273)	minimal inhibitory concentration (MIC) A. baumannii AR-0273 (A. baumannii AR-0273)	post-treatment viability (MTT assay) (FaDu cells [6])	hydrogen peroxide levels (optical density at 525 nm) (FaDu cells [10])	pIC50 (FaDu cells [11]; Homo sapiens)	pIC50 (HEK293 cells; Homo sapiens)	SOD activity (U/mL of cell lysate) (FaDu cells [12])	pIC50 (FaDu cells [11])	pIC50 (HEK293 cells)
O=C1CCN(c2cccc(O)c2)C(=S)N1 [Compound 6, 1-(3-Hydroxyphenyl)-2-thioxotetrahydropyrimidin-4(1H)-one]	> 64 µg/mL		> 64 µg/mL		8 µg/mL (≈ 36 µM)		> 64 µg/mL		32 µg/mL (≈ 144 µM)	16 µg/mL (≈ 72 µM)	> 64 µg/mL		most promising reduction in cell viability	significantly higher	4.87	4.65	significantly higher		
N.N.[Cl][Pt][Cl] [CP, Cisplatin, reference compound]														lower level of hydrogen peroxide production than the tested compounds				4.79	4.80
COc1cccc2c1C(=O)c1c(O)c3c(c(O)c1C2=O)C[C@@](O)(C(=O)CO)C[C@@H]3O[C@H]1C[C@H](N)[C@H](O)[C@H](C)O1 [DOX, doxorubicin hydrochloride, reference compound]														significant increase	5.74				

Continued, in another order:

MIC (P. aeruginosa AR-1114 [1])	minimal inhibitory concentration (MIC) K. pneumoniae AR-0003 (K. pneumoniae AR-0003 [2])	MIC (E. coli AR-0001 [3])	minimal inhibitory concentration (MIC) E. coli AR-0001 (E. coli AR-0001 [4])	MIC (S. aureus TCH 1516 [5])	minimal inhibitory concentration (MIC) P. aeruginosa AR-1114 (P. aeruginosa AR-1114 [7])	MIC (K. pneumoniae AR-0003 [8])	minimal inhibitory concentration (MIC) E. faecalis AR-0671 (E. faecalis AR-0671)	MIC (E. faecalis AR-0671)	minimal inhibitory concentration (MIC) S. aureus TCH 1516 (S. aureus TCH 1516 [9])	MIC (A. baumannii AR-0273)	minimal inhibitory concentration (MIC) A. baumannii AR-0273 (A. baumannii AR-0273)	Structure (SMILES)	post-treatment viability (MTT assay) (FaDu cells [6])	hydrogen peroxide levels (optical density at 525 nm) (FaDu cells [10])	pIC50 (FaDu cells [11]; Homo sapiens)	pIC50 (HEK293 cells; Homo sapiens)	SOD activity (U/mL of cell lysate) (FaDu cells [12])	pIC50 (FaDu cells [11])	pIC50 (HEK293 cells)
> 64 µg/mL	>64 µg/mL	> 64 µg/mL	>64 µg/mL	> 64 µg/mL	>64 µg/mL	> 64 µg/mL	>64 µg/mL	> 64 µg/mL	>64 µg/mL	> 64 µg/mL	>64 µg/mL	O=C(O)CCN(CCC(=O)O)c1cccc(O)c1 [Compound 2, 3,3′-((3-Hydroxyphenyl)azanediyl)dipropionic Acid]	minimal cytotoxicity						
> 64 µg/mL		64 µg/mL (≈ 119 µM)		32 µg/mL (≈ 59.3 µM)		> 64 µg/mL		16 µg/mL (≈ 29.7 µM)		> 64 µg/mL		O=C(CCN(CCC(=O)N/N=C1\C(=O)Nc2ccccc21)c1cccc(O)c1)N/N=C1\C(=O)Nc2ccccc21 [Compound 25]	most promising reduction in cell viability	significantly higher	5.28	4.93	significantly higher; also recorded: highest SOD activity		
> 64 µg/mL		> 64 µg/mL		16 µg/mL (≈ 77.6 µM)		> 64 µg/mL		32 µg/mL (≈ 155 µM)		> 64 µg/mL		O=C1CCN(c2cccc(O)c2)C(=O)N1 [Compound 5, 1-(3-Hydroxyphenyl)dihydropyrimidine-2,4(1H,3H)-dione]		significantly higher	5.00	4.38	significantly higher		
